Activity calls are given as the source filed them. The rule behind the calls is not given here.
What was measured:
Format in all cases: functional, organism-based
[1] = test system: Leishmania amazonensis; assay: In vitro evaluation of leishmanicidal activity against Leishmania amazonensis (PH8) at a dose 25 ug/mL; ++ = 80- 90% lysis
[2] = test system: Leishmania braziliensis; assay: In vitro evaluation of leishmanicidal activity against Leishmania brasiliensis (2903) at a dose 25 ug/mL; ++ = 80- 90% lysis
[3] = test system: Leishmania braziliensis; assay: In vitro evaluation of leishmanicidal activity against Leishmania brasiliensis (2903) at a dose 50 ug/mL; ++ = 80- 90% lysis
[4] = test system: Leishmania braziliensis; assay: In vitro evaluation of leishmanicidal activity against Leishmania brasiliensis (2903) at a dose 10 ug/mL; ++ = 80- 90% lysis
[5] = test system: Leishmania amazonensis; assay: In vitro evaluation of leishmanicidal activity against Leishmania amazonensis (PH8) at a dose 10 ug/mL; ++ = 80- 90% lysis
[6] = test system: Leishmania donovani; assay: In vitro evaluation of leishmanicidal activity against Leishmania donovani (PP75) at a dose 10 ug/mL; ++ = 80- 90% lysis
[7] = test system: Leishmania donovani; assay: In vitro evaluation of leishmanicidal activity against Leishmania donovani (PP75) at a dose 25 ug/mL; ++ = 80- 90% lysis
[8] = test system: Leishmania donovani; assay: In vitro evaluation of leishmanicidal activity against Leishmania donovani (PP75) at a dose 100 ug/mL; ++ = 80- 90% lysis
[9] = test system: Leishmania amazonensis; assay: In vitro evaluation of leishmanicidal activity against Leishmania amazonensis (PH8) at a dose 100 ug/mL; ++ = 80-90% of lysis
[10] = test system: Leishmania braziliensis; assay: Compound was tested in vitro for leishmanicidal activity against Leishmania brasiliensis (2903) at a dose 100 ug/mL; ++ = 80-90% of lysis
[11] = test system: Leishmania donovani; assay: Compound was tested in vitro for leishmanicidal activity against Leishmania donovani (PP75) at a dose 100 ug/mL; ++ = 80-90% of lysis
[12] = test system: Leishmania amazonensis; assay: In vitro evaluation of leishmanicidal activity against Leishmania amazonensis (PH8) at a dose 50 ug/mL; ++ = 80- 90% lysis
[13] = test system: Leishmania donovani; assay: In vitro evaluation of leishmanicidal activity against Leishmania donovani (PP75) at a dose 50 ug/mL; ++ = 80- 90% lysis
[14] = test system: Leishmania amazonensis; assay: In vitro evaluation of leishmanicidal activity against Leishmania amazonensis (PH8) at a dose 100 ug/mL; +++=total lysis of parasites
[15] = test system: Leishmania amazonensis; assay: In vitro evaluation of leishmanicidal activity against Leishmania amazonensis (PH8) at a dose 25 ug/mL; Total lysis of parasites
[16] = test system: Leishmania amazonensis; assay: In vitro evaluation of leishmanicidal activity against Leishmania amazonensis (PH8) at a dose 50 ug/mL; Total lysis of parasites
[17] = test system: Leishmania braziliensis; assay: In vitro evaluation of leishmanicidal activity against Leishmania brasiliensis (2903) at a dose 100 ug/mL; +++=total lysis of parasites
[18] = test system: Leishmania braziliensis; assay: In vitro evaluation of leishmanicidal activity against Leishmania brasiliensis (2903) at a dose 25 ug/mLv
[19] = test system: Leishmania braziliensis; assay: In vitro evaluation of leishmanicidal activity against Leishmania brasiliensis (2903) at a dose 50 ug/mL; +++=total lysis of parasites
[20] = test system: Leishmania braziliensis; assay: In vitro evaluation of leishmanicidal activity against Leishmania brasiliensis (2903) at a dose 10 ug/mL; +++=total lysis of parasites
[21] = test system: Leishmania amazonensis; assay: In vitro evaluation of leishmanicidal activity against Leishmania amazonensis (PH8) at a dose 10 ug/mL; +++=total lysis of parasites
[22] = test system: Leishmania donovani; assay: In vitro evaluation of leishmanicidal activity against Leishmania donovani (PP75) at a dose 10 ug/mL; +++=total lysis of parasites
[23] = test system: Leishmania donovani; assay: In vitro evaluation of leishmanicidal activity against Leishmania donovani (PP75) at a dose 25 ug/mL; +++=total lysis of parasites
[24] = test system: Leishmania donovani; assay: In vitro evaluation of leishmanicidal activity against Leishmania donovani (PP75) at a dose 50 ug/mL; +++=total lysis of parasites
[25] = test system: Leishmania donovani; assay: In vitro evaluation of leishmanicidal activity against Leishmania donovani (PP75) at a dose 100 ug/mL; +++=total lysis of parasites
[26] = test system: Leishmania braziliensis; assay: In vitro evaluation of leishmanicidal activity against Leishmania brasiliensis (2903) at a dose 100 ug/mL; ++ = 80- 90% lysis
[27] = test system: Leishmania amazonensis; assay: In vitro evaluation of leishmanicidal activity against Leishmania amazonensis (PH8) at a dose 100 ug/mL; ++ = 80- 90% lysis
[28] = test system: Leishmania amazonensis; assay: In vitro evaluation of leishmanicidal activity against Leishmania amazonensis (PH8) at a dose 50 ug/mL;++ = 80- 90% lysis
[29] = test system: Leishmania braziliensis; assay: In vitro evaluation of leishmanicidal activity against Leishmania brasiliensis (2903) at a dose 100 ug/mL; + = <70% lysis
[30] = test system: Leishmania amazonensis; assay: In vitro evaluation of leishmanicidal activity against Leishmania amazonensis (PH8) at a dose 100 ug/mL; + = <70% lysis
[31] = test system: Leishmania donovani; assay: In vitro evaluation of leishmanicidal activity against Leishmania donovani (PP75) at a dose 100 ug/mL; + = <70% lysis

## COc1cc(CC(=O)c2ccc3c(c2)OCO3)cc(OC)c1OC
[1]
  Leishmanicidal activity: 80- 90% lysis
[2]
  Leishmanicidal activity: 80- 90% lysis
[3]
  Leishmanicidal activity: 80- 90% lysis
[4]
  Leishmanicidal activity: 80- 90% lysis
[5]
  Leishmanicidal activity: 80- 90% lysis
[6]
  Leishmanicidal activity: 80- 90% lysis
[7]
  Leishmanicidal activity: 80- 90% lysis

## COc1cc(CCc2ccco2)cc(OC)c1OC
[1]
  Leishmanicidal activity: 80- 90% lysis
[2]
  Leishmanicidal activity: 80- 90% lysis
[4]
  Leishmanicidal activity: 80- 90% lysis
[5]
  Leishmanicidal activity: 80- 90% lysis
[6]
  Leishmanicidal activity: 80- 90% lysis
[8]
  Leishmanicidal activity: 80- 90% lysis
[7]
  Leishmanicidal activity: 80- 90% lysis

## COc1cc(CC2(c3cn(C)c4ccccc34)SCCCS2)cc(OC)c1OC
[9]
  Leishmanicidal activity: 80-90% of lysis
[10]
  Leishmanicidal activity: 80-90% of lysis
[11]
  Leishmanicidal activity: 80-90% of lysis

## COc1cc(CCc2ccc3ccccc3c2)cc(OC)c1OC
[12]
  Leishmanicidal activity: 80- 90% lysis
[3]
  Leishmanicidal activity: 80- 90% lysis
[13]
  Leishmanicidal activity: 80- 90% lysis

## N=C(N)c1ccc(OCCCCCOc2ccc(C(=N)N)cc2)cc1
[14]
  Leishmanicidal activity: Active
[15]
  Leishmanicidal activity: Active
[16]
  Leishmanicidal activity: Active
[17]
  Leishmanicidal activity: Active
[18]
  Leishmanicidal activity: Active
[19]
  Leishmanicidal activity: Active
[20]
  Leishmanicidal activity: Active
[21]
  Leishmanicidal activity: Active
[22]
  Leishmanicidal activity: Active
[23]
  Leishmanicidal activity: Active
[24]
  Leishmanicidal activity: Active
[25]
  Leishmanicidal activity: Active

## COc1ccc2[nH]c(-c3ccc4ccccc4c3)c(-c3cc(OC)c(OC)c(OC)c3)c2c1
[26]
  Leishmanicidal activity: 80- 90% lysis
[27]
  Leishmanicidal activity: 80- 90% lysis
[8]
  Leishmanicidal activity: 80- 90% lysis

## COc1ccc2[nH]c(-c3ccc4c(c3)OCO4)c(-c3cc(OC)c(OC)c(OC)c3)c2c1
[28]
  Leishmanicidal activity: 80- 90% lysis
[3]
  Leishmanicidal activity: 80- 90% lysis
[13]
  Leishmanicidal activity: 80- 90% lysis

## COc1cc(C(O)C(=O)c2cccs2)cc(OC)c1OC (stereo not given)
[29]
  Leishmanicidal activity: <70% lysis
[30]
  Leishmanicidal activity: <70% lysis
[31]
  Leishmanicidal activity: <70% lysis

## COc1cc(CCc2ccoc2)cc(OC)c1OC
[29]
  Leishmanicidal activity: <70% lysis
[31]
  Leishmanicidal activity: <70% lysis

## COc1ccc(CCc2ccc3c(c2)OCO3)cc1O
[12]
  Leishmanicidal activity: 80- 90% lysis
[3]
  Leishmanicidal activity: 80- 90% lysis
[26]
  Leishmanicidal activity: 80- 90% lysis
[27]
  Leishmanicidal activity: 80- 90% lysis
[13]
  Leishmanicidal activity: 80- 90% lysis

## COc1cc(CC(=O)c2ccc(C)o2)cc(OC)c1OC
[4]
  Leishmanicidal activity: 80- 90% lysis
[5]
  Leishmanicidal activity: 80- 90% lysis
[6]
  Leishmanicidal activity: 80- 90% lysis
[8]
  Leishmanicidal activity: 80- 90% lysis

## COc1cc(CC(=O)c2ccoc2)cc(OC)c1OC
[26]
  Leishmanicidal activity: 80- 90% lysis
[27]
  Leishmanicidal activity: 80- 90% lysis
[8]
  Leishmanicidal activity: 80- 90% lysis

## COc1cc(CC(O)c2ccc3c(c2)OCO3)cc(OC)c1OC (stereo not given)
[1]
  Leishmanicidal activity: 80- 90% lysis
[12]
  Leishmanicidal activity: 80- 90% lysis
[2]
  Leishmanicidal activity: 80- 90% lysis
[3]
  Leishmanicidal activity: 80- 90% lysis
[4]
  Leishmanicidal activity: 80- 90% lysis
[5]
  Leishmanicidal activity: 80- 90% lysis
[6]
  Leishmanicidal activity: 80- 90% lysis
[7]
  Leishmanicidal activity: 80- 90% lysis
[13]
  Leishmanicidal activity: 80- 90% lysis

## COc1ccc2[nH]c(-c3ccco3)c(-c3cc(OC)c(OC)c(OC)c3)c2c1
[4]
  Leishmanicidal activity: 80- 90% lysis
[5]
  Leishmanicidal activity: 80- 90% lysis
[6]
  Leishmanicidal activity: 80- 90% lysis

## COc1cc(CC(=O)c2ccco2)cc(OC)c1OC
[4]
  Leishmanicidal activity: 80- 90% lysis
[5]
  Leishmanicidal activity: 80- 90% lysis
[6]
  Leishmanicidal activity: 80- 90% lysis

## COc1cc(CC(O)c2ccco2)cc(OC)c1OC (stereo not given)
[26]
  Leishmanicidal activity: 80- 90% lysis
[27]
  Leishmanicidal activity: 80- 90% lysis
[8]
  Leishmanicidal activity: 80- 90% lysis

## COc1ccc(CC(=O)c2ccco2)cc1O
[26]
  Leishmanicidal activity: 80- 90% lysis
[27]
  Leishmanicidal activity: 80- 90% lysis
[8]
  Leishmanicidal activity: 80- 90% lysis

## COc1cc(CCc2cn(C)c3ccccc23)cc(OC)c1OC
[1]
  Leishmanicidal activity: 80- 90% lysis
[2]
  Leishmanicidal activity: 80- 90% lysis
[4]
  Leishmanicidal activity: 80- 90% lysis
[5]
  Leishmanicidal activity: 80- 90% lysis
[6]
  Leishmanicidal activity: 80- 90% lysis
[7]
  Leishmanicidal activity: 80- 90% lysis

## COc1ccc(CCc2ccco2)cc1O
[26]
  Leishmanicidal activity: 80- 90% lysis
[27]
  Leishmanicidal activity: 80- 90% lysis
[8]
  Leishmanicidal activity: 80- 90% lysis
